Numbered stars: 1 amine (or outer) side, 2 acyl side, 3 side chain; on linkers, the order of the positions; unused ones are H or OH. Square brackets hold non-standard residues; d marks the D form. Peptide text beside a SMILES is read from it. X1 = O=C([C@H](CCCCNC1CC1c1ccccc1)N[*:1])[*:2]
Columns and labels:
[1] = target: T1, Amine oxidase [flavin-containing] A (Homo sapiens, UniProt P21397); experiment: Inhibition of human MAOA using (4S)-4,5-dihydro-2-(6-hydroxybenzothiazolyl)-4-thiazolecarboxylic acid substrate incubated for 60 mins by luciferin detection based chemiluminescence assay
T1 sequence (P21397 whole entry): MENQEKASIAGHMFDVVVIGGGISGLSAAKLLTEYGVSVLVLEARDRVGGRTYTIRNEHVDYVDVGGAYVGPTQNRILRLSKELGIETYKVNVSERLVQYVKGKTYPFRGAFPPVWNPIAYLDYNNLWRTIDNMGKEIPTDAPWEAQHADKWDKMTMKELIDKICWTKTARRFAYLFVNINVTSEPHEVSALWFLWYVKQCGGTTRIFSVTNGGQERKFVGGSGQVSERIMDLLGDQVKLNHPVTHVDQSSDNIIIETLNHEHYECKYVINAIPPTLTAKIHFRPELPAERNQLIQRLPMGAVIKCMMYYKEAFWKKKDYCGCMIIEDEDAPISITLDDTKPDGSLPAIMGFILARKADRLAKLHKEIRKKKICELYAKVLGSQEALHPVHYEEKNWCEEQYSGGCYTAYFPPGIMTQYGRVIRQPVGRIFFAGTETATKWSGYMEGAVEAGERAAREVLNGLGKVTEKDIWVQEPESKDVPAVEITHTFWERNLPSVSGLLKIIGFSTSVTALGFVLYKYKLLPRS

[2] = target: T2, Amine oxidase [flavin-containing] B (Homo sapiens, UniProt P27338); experiment: Inhibition of human MAOB using (4S)-4,5-dihydro-2-(6-hydroxybenzothiazolyl)-4-thiazolecarboxylic acid substrate incubated for 60 mins by luciferin detection based chemiluminescence assay
T2 sequence (P27338 whole entry): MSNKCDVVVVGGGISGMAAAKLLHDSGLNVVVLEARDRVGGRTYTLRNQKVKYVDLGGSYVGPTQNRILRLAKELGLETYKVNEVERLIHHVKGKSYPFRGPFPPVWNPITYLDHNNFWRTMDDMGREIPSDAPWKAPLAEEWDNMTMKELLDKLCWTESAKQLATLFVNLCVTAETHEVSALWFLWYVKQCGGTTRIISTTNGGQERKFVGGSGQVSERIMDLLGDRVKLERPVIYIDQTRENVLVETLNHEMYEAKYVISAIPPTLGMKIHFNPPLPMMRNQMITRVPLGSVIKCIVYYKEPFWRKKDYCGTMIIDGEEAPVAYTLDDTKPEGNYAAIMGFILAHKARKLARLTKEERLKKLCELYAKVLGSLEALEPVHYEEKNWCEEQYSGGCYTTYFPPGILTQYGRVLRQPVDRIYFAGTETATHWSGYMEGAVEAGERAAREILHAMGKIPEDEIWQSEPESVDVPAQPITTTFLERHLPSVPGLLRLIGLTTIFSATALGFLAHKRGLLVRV

[3] = target: Lysine-specific histone demethylase 1A (Homo sapiens, UniProt O60341); experiment: Inhibition of human recombinant LSD1 assessed as effect on H2O2 production incubated for 30 mins using methylated peptide substrate, Amplex red reagent and peroxidase by fluorimetry

IC50 [1] [µM]	IC50 [2] [µM]	IC50 [3] [µM]	Structure (SMILES)
> 100	> 100		C[C@H](N)C(=O)N[C@@H](CCCNC(=N)N)C(=O)N[C@H](C(=O)N[C@@H](CCCCNC1CC1c1ccccc1)C(=O)N[C@@H](CCC(N)=O)C(=O)N[C@H](C(=O)N[C@@H](C)C(=O)N[C@@H](CCCNC(=N)N)C(=O)N[C@@H](CCCCN)C(=O)N[C@@H](CO)C(=O)N[C@H](C(=O)NCC(=O)NCC(=O)N[C@@H](CCCCN)C(=O)N[C@@H](C)C(=O)N1CCC[C@H]1C(=O)N[C@@H](CCCNC(=N)N)C(=O)O)[C@@H](C)O)[C@@H](C)O)[C@@H](C)O (some centres undefined) (H-ART[X1]QTARKSTGGKAPR-OH)
> 100	> 100		C[C@H](N)C(=O)N[C@@H](CCCNC(=N)N)C(=O)N[C@H](C(=O)N[C@@H](CCCCNC1CC1c1ccccc1)C(=O)N[C@@H](CCC(N)=O)C(=O)N[C@H](C(=O)N[C@@H](C)C(=O)N[C@@H](CCCNC(=N)N)C(=O)N[C@@H](CCCCN)C(=O)O)[C@@H](C)O)[C@@H](C)O (some centres undefined)
> 100	> 100		C[C@H](N)C(=O)N[C@@H](CCCNC(=N)N)C(=O)N[C@H](C(=O)N[C@@H](CCCCNC1CC1c1ccccc1)C(=O)N[C@@H](CCC(N)=O)C(=O)N[C@H](C(=O)N[C@@H](C)C(=O)N[C@@H](CCCNC(=N)N)C(=O)N[C@@H](CCCCN)C(=O)N[C@@H](CO)C(=O)N[C@H](C(=O)NCC(=O)NCC(=O)O)[C@@H](C)O)[C@@H](C)O)[C@@H](C)O (some centres undefined)
> 100	> 100	> 10	C[C@H](N)C(=O)N[C@@H](CCCNC(=N)N)C(=O)N[C@H](C(=O)N[C@@H](CCCCNC1CC1c1ccccc1)C(=O)N[C@@H](CCC(N)=O)C(=O)O)[C@@H](C)O (some centres undefined) (H-ART[X1]Q-OH)

Source: ChEMBL document CHEMBL3400031, “Histone H3 peptide based LSD1-selective inhibitors” (Bioorg Med Chem Lett, 2015)
